Experimental data: ChEMBL document CHEMBL3120146, “Synthesis and biological evaluation of new boron-containing chlorin derivatives as agents for both photodynamic therapy and boron neutron capture therapy of cancer” (Bioorg Med Chem Lett, 2014)
Active and inactive are the calls of the source. No cut-off for these calls is given here.

How the values were obtained:
Brain = test: Biodistribution in BALB/c mouse brain allografted with mouse Colon 26 cells at 10 umol/kg, iv measured at 24 hrs by spectrofluorometric analysis; assay type: ADME, organism-based; settings: in vivo
Colon 26 [1] = test: Cytotoxicity against mouse Colon 26 cells assessed as cell viability at 1 to 10 uM after 24 hrs by WST-8 assay; assay type: cell-based; settings: colon 26, 24 h
Zone of skin = test: Biodistribution in BALB/c mouse skin allografted with mouse Colon 26 cells at 10 umol/kg, iv measured at 24 hrs by spectrofluorometric analysis; assay type: ADME, organism-based; settings: in vivo
Tumour [2] = test: Biodistribution in tumor of BALB/c mouse allografted with mouse Colon 26 cells at 10 umol/kg, iv measured at 12 hrs by spectrofluorometric analysis; assay type: ADME, organism-based; settings: in vivo
[3] = Solubility of the compound in water; assay type: physicochemical
Muscle tissue = test: Biodistribution in BALB/c mouse muscle allografted with mouse Colon 26 cells at 10 umol/kg, iv measured at 24 hrs by spectrofluorometric analysis; assay type: ADME, organism-based; settings: in vivo
Serum [4] = test: Biodistribution in BALB/c mouse serum allografted with mouse Colon 26 cells at 10 umol/kg, iv measured at 24 hrs by spectrofluorometric analysis; assay type: ADME, organism-based; settings: in vivo
Lung = test: Biodistribution in BALB/c mouse lung allografted with mouse Colon 26 cells at 10 umol/kg, iv measured at 24 hrs by spectrofluorometric analysis; assay type: ADME, organism-based; settings: in vivo
Kidney = test: Biodistribution in BALB/c mouse kidney allografted with mouse Colon 26 cells at 10 umol/kg, iv measured at 24 hrs by spectrofluorometric analysis; assay type: ADME, organism-based; settings: in vivo
Liver [5] = test: Biodistribution in BALB/c mouse liver allografted with mouse Colon 26 cells at 10 umol/kg, iv measured at 24 hrs by spectrofluorometric analysis; assay type: ADME, organism-based; settings: in vivo
Spleen = test: Biodistribution in BALB/c mouse spleen allografted with mouse Colon 26 cells at 10 umol/kg, iv measured at 24 hrs by spectrofluorometric analysis; assay type: ADME, organism-based; settings: in vivo
Colon 26 [6] = test: Antitumor activity against mouse Colon 26 cells allografted in BALB/c mouse assessed as tumor growth inhibition at 10 umol/kg, iv pretreated for 3 hrs followed by light-emitting diode irradiation at 660 nm wavelength measured after 3 to 7 days by photodynamic therapy; assay type: functional, organism-based; settings: tested as the 10B-labelled form
Tumour [7] = test: Biodistribution in tumor of BALB/c mouse allografted with mouse Colon 26 cells at 10 umol/kg, iv measured at 3 hrs by spectrofluorometric analysis; assay type: ADME, organism-based; settings: in vivo
Serum [8] = test: Biodistribution in BALB/c mouse serum allografted with mouse Colon 26 cells at 10 umol/kg, iv measured at 6 to 12 hrs by spectrofluorometric analysis; assay type: ADME, organism-based; settings: in vivo
Serum [9] = test: Biodistribution in BALB/c mouse serum allografted with mouse Colon 26 cells at 10 umol/kg, iv measured at 1 hr by spectrofluorometric analysis; assay type: ADME, organism-based; settings: in vivo
Serum [10] = test: Biodistribution in BALB/c mouse serum allografted with mouse Colon 26 cells at 10 umol/kg, iv measured at 3 hrs by spectrofluorometric analysis; assay type: ADME, organism-based; settings: in vivo
Liver [11] = test: Biodistribution in BALB/c mouse liver allografted with mouse Colon 26 cells at 10 umol/kg, iv measured at 1 to 12 hrs by spectrofluorometric analysis; assay type: ADME, organism-based; settings: in vivo

Drug uptake (Brain) | Drug uptake (Zone of skin) | Drug uptake (Tumour [2]) | solubility [3] | Drug uptake (Muscle tissue) | Drug uptake (Serum [4]) | Drug uptake (Lung) | Drug uptake (Kidney) | Drug uptake (Liver [5]) | Drug uptake (Spleen) | Drug uptake (Tumour [7]) | Drug uptake (Serum [8]) | Drug uptake (Serum [9]) | Drug uptake (Serum [10]) | Drug uptake (Liver [11]) | SMILES | Activity (Colon 26 [1]) | TGI (Colon 26 [6])
Active | Active | 0.21 pmol/mg | 100 µg/mL | Active | Not Active | Active | Active | Active | Active |  |  |  |  |  | C=Cc1c(C)c2cc3nc(cc4[nH]c(cc5nc(cc1[nH]2)C(C)(O)/C5=C\C=N\OCCCNC(=O)/C=C/c1ccc([10B](O)O)cc1)c(C)c4CCC(=O)N(CC(=O)[O-])CC(=O)[O-])C(CCC(=O)N(CC(=O)[O-])CC(=O)[O-])=C3C.[Na+].[Na+].[Na+].[Na+] (configuration not stated) | Non-toxic | 
 |  |  |  |  |  |  |  |  |  |  |  |  |  |  | C=Cc1c(C)c2cc3nc(cc4[nH]c(cc5nc(cc1[nH]2)C(C)(O)/C5=C\C=N\OCC)c(C)c4CCC(=O)NC(Cc1ccc(B(O)O)cc1)C(=O)O)C(CCC(=O)NC(Cc1ccc(B(O)O)cc1)C(=O)O)=C3C (configuration not stated) |  | Active
Active | Active |  | 100 µg/mL | Active | Not Active | Active | Active | Active | Active | 0.27 pmol/mg | Active | 7.6 pmol/mg | 32.2 pmol/mg | Active | C=Cc1c(C)c2cc3nc(cc4[nH]c(cc5nc(cc1[nH]2)C(C)(O)/C5=C\C=N\OCC)c(C)c4CCC(=O)NC(Cc1ccc([10B](O)O)cc1)C(=O)[O-])C(CCC(=O)NC(Cc1ccc([10B](O)O)cc1)C(=O)[O-])=C3C.[Na+].[Na+] (configuration not stated) | Non-toxic | 
